Literature values as cited in patent publication US4203975A, “Psychopharmacological peptides suitable for therapeutic administration” (Akzona Incorporated, priority 1977, dated 1980).

Experiments:
[1] = prior art
rats = rats from which the hypophysis or the posterior lobe thereof has been removed

Compound	pressor activity [1]	inhibition of the extinction of the conditioned flight response (rats)
NC(=O)CC[C@@H]1NC(=O)[C@H](Cc2ccccc2)NC(=O)[C@H](Cc2ccc(O)cc2)NC(=O)[C@@H](N)CSSC[C@@H](C(=O)N2CCC[C@H]2C(=O)N[C@@H](CCCN=C(N)N)C(=O)NCC(N)=O)NC(=O)[C@H](CC(N)=O)NC1=O [vasopressin]	extremely powerful pressor activity	
(Lys)-vasopressin zinc tannate		capable of inhibiting the extinction of the conditioned flight response
